pEC50: −log10 of the molar value. “Also recorded” adds a separate entry of the source. Where two headings read alike, the source gives them in different places.
Experiments:
AR [1] = settings: exposure 0–10 µM; ref Vinggaard et al. (2000); cited from earlier work
[2] = target: T1, aryl hydrocarbon receptor (AhR) (Rattus norvegicus, UniProt P41738); assay: H4IIE AhR CALUX agonist assay; format: cell-based
T1 sequence (P41738 10-853): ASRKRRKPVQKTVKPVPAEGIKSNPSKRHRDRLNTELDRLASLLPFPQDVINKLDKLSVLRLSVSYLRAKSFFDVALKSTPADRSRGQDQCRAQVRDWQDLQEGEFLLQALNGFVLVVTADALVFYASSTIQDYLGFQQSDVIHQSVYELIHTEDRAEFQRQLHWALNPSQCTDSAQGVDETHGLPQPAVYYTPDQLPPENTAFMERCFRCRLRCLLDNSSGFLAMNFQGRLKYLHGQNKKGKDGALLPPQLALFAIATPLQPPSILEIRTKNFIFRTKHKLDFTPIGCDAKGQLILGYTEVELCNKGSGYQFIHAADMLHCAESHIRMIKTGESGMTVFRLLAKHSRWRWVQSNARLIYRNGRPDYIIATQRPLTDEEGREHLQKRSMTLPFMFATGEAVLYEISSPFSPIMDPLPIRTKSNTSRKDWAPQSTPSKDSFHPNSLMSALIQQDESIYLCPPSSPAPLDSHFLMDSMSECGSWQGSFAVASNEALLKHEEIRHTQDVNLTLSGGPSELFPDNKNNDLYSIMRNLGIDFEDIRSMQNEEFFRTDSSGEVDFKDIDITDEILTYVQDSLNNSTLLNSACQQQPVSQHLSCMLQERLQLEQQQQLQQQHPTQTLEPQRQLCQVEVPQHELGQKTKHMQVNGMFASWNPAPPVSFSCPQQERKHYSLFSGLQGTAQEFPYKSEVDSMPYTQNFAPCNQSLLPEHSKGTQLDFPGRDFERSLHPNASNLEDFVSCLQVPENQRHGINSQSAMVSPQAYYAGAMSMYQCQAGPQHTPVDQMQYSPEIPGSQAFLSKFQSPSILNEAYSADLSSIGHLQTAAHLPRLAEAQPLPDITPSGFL

AR [3] = settings: exposure 0–100 µM; ref Kizu et al. (2003); cited from earlier work
ERα [4] = settings: 10 mg/kg bw/day; ref Kummer et al. (2008); cited from earlier work
ERα [5] = settings: exposure 0–10 µM; ref Charles et al. (2000); cited from earlier work
[6] = target: T2, estrogen receptor alpha (ERα) (Homo sapiens, UniProt P03372); assay: U2OS ERα CALUX antagonist assay; format: cell-based; settings: 24 h exposure; with EC50 concentration of E2 (2.7 × 10^−6 µg/ml)
T2 sequence (P03372 1-595): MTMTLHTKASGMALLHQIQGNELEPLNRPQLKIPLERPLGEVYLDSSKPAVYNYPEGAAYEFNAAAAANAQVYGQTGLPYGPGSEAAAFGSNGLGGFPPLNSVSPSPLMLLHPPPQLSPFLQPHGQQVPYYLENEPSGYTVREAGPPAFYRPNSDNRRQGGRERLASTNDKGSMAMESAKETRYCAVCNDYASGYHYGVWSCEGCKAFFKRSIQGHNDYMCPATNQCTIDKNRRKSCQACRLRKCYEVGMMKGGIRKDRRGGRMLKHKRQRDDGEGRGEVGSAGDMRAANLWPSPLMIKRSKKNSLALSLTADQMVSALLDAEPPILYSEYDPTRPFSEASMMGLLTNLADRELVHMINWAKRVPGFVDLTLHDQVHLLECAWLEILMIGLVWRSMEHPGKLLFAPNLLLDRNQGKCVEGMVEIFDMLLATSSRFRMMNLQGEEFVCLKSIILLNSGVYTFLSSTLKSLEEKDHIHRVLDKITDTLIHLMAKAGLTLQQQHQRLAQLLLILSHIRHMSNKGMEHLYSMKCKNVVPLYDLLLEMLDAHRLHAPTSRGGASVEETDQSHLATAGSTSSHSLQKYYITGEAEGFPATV

In the case of Cc1c2ccccc2c(C)c2c1ccc1ccccc12 [7, 12-dimethylbenz[a]anthracene], the “Effects on AR” value (AR [1]) is given as “AR antagonist”.

In the case of c1ccc2c(c1)cc1ccc3cccc4ccc2c1c34 [BaP, benzo[a]pyrene, reference compound], the pEC50 [2] is listed as 7.91, the “Effects on AR” value (AR [1]) is listed as “AR antagonist” and the “Effects on AR” value (AR [3]) is listed as “AR antagonist (except for anthracene and pyrene)”.

For c1ccc2cc3ccccc3cc2c1 [Anthracene], the “Effects on AR” value (AR [1]) is given as “AR antagonist; also recorded: Phenanthrene, Anthracene, Pyrene: antagonize the AR activity just at the highest tested concentration” and the “Effects on AR” value (AR [3]) is given as “Anthracene and Pyrene show no AR-mediated activity”.

In the case of c1ccc2c(c1)-c1cccc3cccc-2c13 [Fluoranthene], the “Effects on AR” value (AR [1]) is listed as “AR antagonist” and the “Effects on ERα” value (ERα [4]) is listed as “ERα agonist (except for Benzo[k]fluoranthene)”.

In the case of c1ccc2cc3c(ccc4ccccc43)cc2c1 [Benz[a]anthracene], the “Effects on AR” value (AR [1]) is listed as “AR antagonist”.

For c1ccc2cc3c(cc2c1)-c1cccc2cccc-3c12 [Benzo[k]fluoranthene], the “Effects on AR” value (AR [3]) is given as “AR antagonist (except for anthracene and pyrene)” and the “Effects on ERα” value (ERα [4]) is given as “Benzo[k]fluoranthene shows no ERα-mediated activity”.

For Oc1ccc2cc3ccc4cccc5ccc(c2c1)c3c45 [9OH-BaP], the “Effects on ERα” value (ERα [5]) is listed as “Hydroxy metabolites of BaP, including 3OH-BaP, 9OH-BaP, and 9, 10OH-BaP, act as ERα agonist”.

For c1cc2ccc3cccc4ccc(c1)c2c34 [Pyrene], the “Effects on AR” value (AR [1]) is given as “AR antagonist; also recorded: Phenanthrene, Anthracene, Pyrene: antagonize the AR activity just at the highest tested concentration” and the “Effects on AR” value (AR [3]) is given as “Anthracene and Pyrene show no AR-mediated activity”.

In the case of Oc1ccc2ccc3c4ccccc4cc4ccc1c2c43 [3OH-BaP], the “Effects on ERα” value (ERα [5]) is listed as “Hydroxy metabolites of BaP, including 3OH-BaP, 9OH-BaP, and 9, 10OH-BaP, act as ERα agonist”.

For C[C@]12CC[C@@H]3c4ccc(O)cc4C[C@@H](CCCCCCCCC[S+]([O-])CCCC(F)(F)C(F)(F)F)[C@H]3[C@@H]1CC[C@@H]2O (some centres unmarked) [Fulvestrant, fulvestrant], the “ERα Antagonist Assay IC25” value [6] was 0.011 ng/mL.

In the case of c1ccc2c(c1)ccc1ccccc12 [Phenanthrene], the “Effects on AR” value (AR [1]) is listed as “AR antagonist; also recorded: Phenanthrene, Anthracene, Pyrene: antagonize the AR activity just at the highest tested concentration”.

Source: PMC6061685 (Toxicological Sciences, 2018)
